In one series the test system is Rhynchosporium secalis. The series is described as follows: Example S: in vivo test on Rhynchosporium secalis (leaf scald in barley/protective). As to conditions: 336 h, barley, protective, 1000 ppm active substance, assessed 14 days after inoculation, read-out: % Wirkungsgrad (activity level). An outline of the steps:
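Protective test: young barley plants were sprayed with active substance in dimethylacetamide/alkylaryl polyglycol ether emulsion diluted with water. Once dry, plants were inoculated with R. secalis spore suspension. Assessment was made 14 days after inoculation.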

The test system of series [1] is Fusarium graminearum. The series is described as follows: microbe, parasite or virus in culture. Format: cell-based.
Series [2] has as its system Mycosphaerella graminicola. The series is described as follows: Example G: in vivo test on Mycosphaerella graminicola (wheat leaf blotch disease). As to conditions: Zymoseptoria tritici, wheat plants sprayed 24 hours before inoculation, scored after 21 to 28 days, read-out: % Wirkungsgrad. In a few lines: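 Scipion wheat at first-leaf stage (10 cm) was sprayed with aqueous active-substance suspension, then inoculated 24 hours later with Mycosphaerella graminicola spores (500,000 spores per ml) from 7 day-old culture. Disease was scored after 21 to 28 days against untreated sprayed controls.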

Another series relates to Phakopsora pachyrhizi. The series is described as follows: Example Z: in vivo test on Phakopsora pachyrhizi (soya bean rust/protective). As to conditions: soya bean rust, protective, 250 ppm active substance, assessed 11 days after inoculation.
A further series relates to Botrytis cinerea. As to the kind of experiment: Example P: in vivo test on Botrytis cinerea (gray mould on bean/protective). As to conditions: 48 h, bean, protective, 250 ppm active substance, assessed 2 days after inoculation, read-out: % Wirkungsgrad (activity level). In a few lines:
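Infection blotch size on leaves was scored 2 days after placing 2 Botrytis-colonised agar pieces per leaf. Inoculation followed drying of a protective spray applied to young plants at the stated dosage. Spray was prepared by diluting compound with solvent and alkylaryl polyglycol ether emulsifier in water.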

The subject of another series is Pyricularia oryzae. As to the kind of experiment: whole plant or invertebrate. As to conditions: 120 h, read-out: % Activity level. Format: in vivo.
The next series concerns Leptosphaeria nodorum. As to the kind of experiment: Example Q: in vivo test on Leptosphaeria nodorum (glume blotch in wheat/protective). As to conditions: Parastagonospora nodorum, 192 h, wheat, protective, assessment 8 days after inoculation, read-out: % Wirkungsgrad. An outline of the steps:
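Protective test: young wheat plants sprayed with compound formulated in N,N-dimethylacetamide plus alkylaryl polyglycol ether emulsifier, diluted in water to the stated dose. After drying, plants inoculated with L. nodorum spore suspension; disease assessed 8 days post-inoculation.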

Series [3] concerns Fusarium graminearum. The series is described as follows: whole plant or invertebrate. As to conditions: in Hordeum vulgare, 120 h, read-out: % Wirkungsgrad (activity level). It is filed as in vivo.
The next series relates to Venturia inaequalis. The series is described as follows: Example O: in vivo test on Venturia inaequalis (apple scab/protective). As to conditions: 240 h, protective, assessment 10 days after inoculation, read-out: % Wirkungsgrad. An outline of the steps: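 Young plants received a preventive spray of compound formulated as an emulsifier-containing aqueous dilution at the given application rate, then were inoculated with apple scab fungus. Disease was scored 10 days post-inoculation.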

A further series deals with Sphaerotheca fuliginea. The series is described as follows: Example D: in vivo test on Sphaerotheca fuliginea (powdery mildew on cucumber). As to conditions: Podosphaera fuliginea, 288 h, cucumber plants sprayed 24 hours before inoculation, scored after 12 days, read-out: % Wirkungsgrad. In a few lines: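 Scoring took place 12 days after spore inoculation (100,000 spores/ml, at ca. 20/25° C., 60/70% RH) and was made against plants sprayed without active substance. Inoculation followed by 24 hours a spray of water-diluted acetone/Tween/DMSO compound suspension onto Z10 cotyledon-stage cucumbers.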

The subject of the next series is Cochliobolus miyabeanus. As to the kind of experiment: Example X: in vivo test on Cochliobolus miyabeanus (brown spot disease, rice/protective). As to conditions: Bipolaris oryzae, 96 h, read-out: % Activity level.
A short description of the next series: physchem. As to conditions: LogPA (logP of the stated pure compound or, in a mixture, of the main isomer, 1-substituted 3-aryl-1H-pyrazole).
A further series deals with Pyrenophora teres. As to the kind of experiment: Example E: in vivo test on Pyrenophora teres (barley net blotch disease). As to conditions: Pyrenophora teres, 288 h, barley plants sprayed 24 hours before inoculation, scored after 12 days, read-out: % Wirkungsgrad. The procedure:
In Vivo Test on Pyrenophora Teres (Barley Net Blotch Disease) An aqueous suspension of the active substance was prepared by homogenization of a mixture of acetone/Tween/dimethyl sulphoxide and subsequent dilution with water to the desired concentration. Barley plants (variety: Plaisant) are sown in cultivation dishes on a peat-pozzolanic earth substrate (50/50) at 12° C. and sprayed at the first-leaf stage (10 cm size) with the aqueous suspension described above. As a control, plants are sprayed with an aqueous solution with no active substance. After 24 hours the plants are inoculated by spraying with an aqueous suspension of Pyrenophora teres spores (12,000 spores per ml). The spores are derived from a 12 day-old culture. […] After 12 days they are scored in comparison with the control plants.

[4] abbreviates: 72 h, read-out: % Inhibition des Pilzwachstums bei 50 μM.
The mark [5] stands for this setting: 168 h, read-out: % Inhibition der DON/AcDON produktion bei 50 μM.

SMILES strings stand for the structures. Where two headings read alike, the source gives them in different places.

Experimental findings from patent publication US20110183978A1, “Phenylpyri(mi)dinylazoles” (Bayer CropScience AG, priority 2009, published 2011) are described below.

Consider `CC(C)C(=O)Nc1cc(-c2cn(C(C)C)nc2-c2ccc(F)cc2)ccn1` [Compound 84], for which the pest or weed control at 1000 ppm in the series on Rhynchosporium secalis was determined as 90%; with Leptosphaeria nodorum, 100%; in the series with Fusarium graminearum [3] it was 100%. The values for the inhibition at 50 µM in the series on Fusarium graminearum [1] (setting [4]) and with Fusarium graminearum [1] (setting [5]) were 92% and 99%, respectively. Also, the pest or weed control at 500 ppm in series [2] came to 98%; in the series on Sphaerotheca fuliginea, 100%. Further, in the series on Phakopsora pachyrhizi, the “% Activity level” value came out at 98%. The values for the pest or weed control at 250 ppm in the series with Botrytis cinerea, in the series on Pyricularia oryzae and in the series with Cochliobolus miyabeanus were 99%, 85% and 93%, respectively. Also, the pest or weed control at 100 ppm with Venturia inaequalis was determined as 100%. Further, the chromatographic logP (commonly a lipophilicity value derived from retention on a column) in the series “physchem” is 2.5.

Take `CC(C)n1cc(-c2ccnc(NC(=O)C3CC3)c2)c(-c2ccc(F)cc2)n1` [Compound 86]: the pest or weed control at 1000 ppm with Rhynchosporium secalis turned out to be 86%; with Leptosphaeria nodorum, 100%; with Fusarium graminearum [3], 100%. Also, the results for the inhibition at 50 µM in the series with Fusarium graminearum [1] (setting [4]) and in the series with Fusarium graminearum [1] (setting [5]) were 94% and 98%, respectively. Also, the pest or weed control at 500 ppm in [2] worked out at 94%; with Pyrenophora teres it was 81%; with Sphaerotheca fuliginea, 100%. The pest or weed control at 250 ppm turned out to be 100% in the series on Botrytis cinerea, 93% in the series with Pyricularia oryzae and 80% in the series with Cochliobolus miyabeanus. For the same compound, in the series on Venturia inaequalis, the pest or weed control at 100 ppm was determined as 96%. Besides, in “physchem”, the chromatographic logP is 2.07.

As to `CC(C)Cn1cc(-c2ccncc2)c(-c2ccc(F)cc2)n1` [Compound 1], in the series on Phakopsora pachyrhizi, the “% Activity level” value is given as 91%. The pest or weed control at 500 ppm in the series with Pyrenophora teres turned out to be 96%; in the series with Sphaerotheca fuliginea, 100%. In addition, the pest or weed control at 250 ppm with Botrytis cinerea was 99%; in the series with Pyricularia oryzae, 80%; in the series with Cochliobolus miyabeanus it was 85%. Besides, the pest or weed control at 1000 ppm with Leptosphaeria nodorum and in the series on Fusarium graminearum [3] was 100% throughout. In addition, the pest or weed control at 100 ppm in the series with Venturia inaequalis was 99%. The chromatographic logP in “physchem” was found to be 1.63.

On to `CCC(=O)Nc1cc(-c2cn(C(C)C)nc2-c2ccc(F)cc2)ccn1` [Compound 85], for which the inhibition at 50 µM in the series on Fusarium graminearum [1] (setting [4]) turned out to be 100%; in the series on Fusarium graminearum [1] (setting [5]), 99%. In addition, the results for the pest or weed control at 500 ppm in the series on Pyrenophora teres and in the series with Sphaerotheca fuliginea were 75% and 100%, respectively. For the same compound, the results for the pest or weed control at 250 ppm in the series with Botrytis cinerea, in the series with Pyricularia oryzae and with Cochliobolus miyabeanus were 100%, 80% and 90%, respectively. Besides, the pest or weed control at 1000 ppm with Leptosphaeria nodorum and with Fusarium graminearum [3] was 100% in each case. Also, the pest or weed control at 100 ppm in the series with Venturia inaequalis was 88%. In addition, the chromatographic logP in “physchem” is 2.15.
